Reference: US11964978B2, “Modulators of STING (stimulator of interferon genes)” (PFIZER INC., priority 2021, dated 2024)

Legend:
R232-STING = R232-STING (Homo sapiens (Human), UniProt Q86WV6, H232R); conditions: read-out: R232-STING SPA-IC50 Ki; STING residues 155-341, 100 nM 3H-cGAMP; KI from IC50 with Cheng-Prusoff equation
[1] = system: THP-1 Lucia ISG cells (IRF-inducible Lucia luciferase reporter); assay: Interferon-β induction: THP-1 ISG reporter cell line; assay type: cell-based; conditions: THP1-Lucia ISG, 24 hours incubation, read-out: THP-1 Lucia ISG Cells IFN-β EC50
Description: Interferon-β Induction: THP-1 ISG Reporter Cell Line
THP-1 Lucia™ ISG cells (InvivoGen) express the secreted luciferase “Lucia” reporter gene under the control of an IRF-inducible composite promotor comprised of five interferon response elements. THP-1 Lucia™ ISG cells were grown in RPMI media plus 2 mM L-glutamine, 10% fetal bovine serum, and 0.5% Pen-Strep. Hygromycin B and Zeocin were present to maintain stable transfection. 10^4 cells were seeded in 96-well plates and incubated overnight 37° C., 5% CO2. 50 μL of serial diluted compounds in media (final 0.5% DMSO) was and incubated for an additional 24 hours. After incubation, the plates were centrifuged at 2000 rpm for 10 min. 50 μl of cell culture supernatant of each well was transferred to a white, opaque 96-well plate. One pouch of QUANTI-Luc™ (InvivoGen) powder was prepared in 25 mL of endotoxin-free water and 100 μL of prepared warm QUANTI-Luc solution were added to each well containing the supernatant. The luminescence signal was measured using a Perkin-Elmer Envision microplate reader. Data were normalized to “% effect” with a positive control STING agonist that was known to maximize the luciferase signal and the negative control DMSO.

[2] = system: phosphorylation of IRF3 in THP-1 cells (STING activation); assay: Phosphorylation of IRF3: THP-1 cell ELISA; assay type: cell-based; conditions: Homo sapiens, 3 hours incubation, read-out: THP-1 CELL P-IRF3 EC50
Description: Phosphorylation of IRF3: THP-1 cell ELISA
STING activation results in recruitment of TBK1 and phosphorylation of IRF3 transcription factor before induction of type I interferons. THP-1 cells (InvivoGen) were grown in RPMI media plus 2 mM L-glutamine, 10% fetal bovine serum, and 0.5% Pen-Strep. 10^4 cells were seeded in 96-well plates and incubated overnight […]. Compounds serial diluted compounds in media (final 0.5% DMSO) were added to the cells and incubated for an additional 3 hours. After incubation, the plates were centrifuged at 2000 rpm for 5 min. The cells were then lysed in 100 μl RIPA buffer and vortexed for 30 minutes at room temperature. 25 μl of lysate was then transferred to clear polystyrene High Bind plates that had been previously coated with mouse anti-human IRF-3 capture antibody (BD Pharmigen), and allowed to incubate at 4° C. for 16 hours. The plates were then washed and incubated with rabbit anti-phospho-IRF3 detection antibody (Cell Signaling Technologies) for 1.5 hours at room temperature. Finally, an HRP-linked secondary antibody (Cell Signaling Technologies) was added for 30 min before the Glo Substrate Reagent (R&D Systems) was used generate the luminescent signal. The signal was measured using a Perkin-Elmer Envision microplate reader. Data were normalized to “% effect” with a positive control STING agonist that was known to maximize the phosphorylated IRF3 signal and the negative control was DMSO.

Sequence of R232-STING (Q86WV6 155-341 H232R): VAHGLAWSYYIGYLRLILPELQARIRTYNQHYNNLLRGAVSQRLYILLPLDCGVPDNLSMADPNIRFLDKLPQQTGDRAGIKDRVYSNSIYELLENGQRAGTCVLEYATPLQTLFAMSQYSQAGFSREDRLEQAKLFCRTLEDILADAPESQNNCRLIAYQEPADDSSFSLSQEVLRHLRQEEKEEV

SMILES	Ki (R232-STING) [nM]	EC50 [1] [nM]	EC50 [2] [nM]
Cc1cc(-c2cn(C)c(-c3nc(C(N)=O)cc4c3cnn4C)n2)n(C[C@@H]2CCO2)n1 (single isomer, unassigned) [AIM02]	135	8960	> 10000
Cc1cc(-c2cn(C)c(-c3nc(C(N)=O)cc4c3cnn4C)n2)n(C[C@H]2CCO2)n1 (single isomer, unassigned) [Example AIM01]	175	> 10000	> 10000
CCn1cc(-c2cc(C)nn2CC)nc1-c1nc(C(N)=O)cc2c1cnn2C [AIA02, 4-[1-ethyl-4-(1-ethyl-3-methyl-1H-pyrazol-5-yl)-1H-imidazol-2-yl]-1-methyl-1H-pyrazolo[4,3-c]pyridine-6-carboxamide]	18	770	800
CCn1nc(C)cc1-c1cn(C(C)C)c(-c2nc(C(N)=O)cc3c2cnn3C)n1 [AIA03, 4-[4-(1-ethyl-3-methyl-1H-pyrazol-5-yl)-1-(propan-2-yl)-1H-imidazol-2-yl]-1-methyl-1H-pyrazolo[4,3-c]pyridine-6-carboxamide]	71.4	4530	4890
CCn1nc(C)cc1-c1cn(CC(F)F)c(-c2nc(C(N)=O)cc3c2cnn3C)n1 [AIA04, 4-[1-(2,2-difluoroethyl)-4-(1-ethyl-3-methyl-1H-pyrazol-5-yl)-1H-imidazol-2-yl]-1-methyl-1H-pyrazolo[4,3-c]pyridine-6-carboxamide]	33.8	1310	1260
CCn1nc(C)cc1-c1cn(C)c(-c2nc(C(N)=O)cc3c2ccn3C)n1 [AIC02, 4-[4-(1-ethyl-3-methyl-1H-pyrazol-5-yl)-1-methyl-1H-imidazol-2-yl]-1-methyl-1H-pyrrolo[3,2-c]pyridine-6-carboxamide]	113	> 10000	> 10000
CCn1ncc2c(-c3nc(-c4cc(C)nn4CCCOC)cn3C)nc(C(N)=O)cc21 [AIC03, 1-ethyl-4-{4-[1-(3-methoxypropyl)-3-methyl-1H-pyrazol-5-yl]-1-methyl-1H-imidazol-2-yl}-1H-pyrazolo[4,3-c]pyridine-6-carboxamide]	7.8	700	650
CCn1cc(-c2cc(C)nn2CCCO)nc1-c1nc(C(N)=O)cc2c1cnn2C [AIE02, 4-{1-ethyl-4-[1-(3-hydroxypropyl)-3-methyl-1H-pyrazol-5-yl]-1H-imidazol-2-yl}-1-methyl-1H-pyrazolo[4,3-c]pyridine-6-carboxamide]	12.7	270	200
Cc1cc(-c2cn(C)c(-c3nc(C(N)=O)cc4c3cnn4C)n2)n(CCCCCO)n1 [AIE03, 4-{4-[1-(5-hydroxypentyl)-3-methyl-1H-pyrazol-5-yl]-1-methyl-1H-imidazol-2-yl}-1-methyl-1H-pyrazolo[4,3-c]pyridine-6-carboxamide]	10.7	310	310
Cc1cc(-c2cn(C)c(-c3nc(C(N)=O)cc4c3cnn4C)n2)n(CCCCO)n1 [AIE04, 4-{4-[1-(4-hydroxybutyl)-3-methyl-1H-pyrazol-5-yl]-1-methyl-1H-imidazol-2-yl}-1-methyl-1H-pyrazolo[4,3-c]pyridine-6-carboxamide]	13.7	740	690
COCCn1nc(C)cc1-c1cn(C)c(-c2nc(C(N)=O)cc3c2cnn3C)n1 [AIF02, 4-{4-[1-(2-methoxyethyl)-3-methyl-1H-pyrazol-5-yl]-1-methyl-1H-imidazol-2-yl}-1-methyl-1H-pyrazolo[4,3-c]pyridine-6-carboxamide]	54.6	2160	2090
COCCCn1nc(C)cc1-c1cn(C)c(-c2nc(C(N)=O)cc3c2cnn3C)n1 [AIF03, 4-{4-[1-(3-methoxypropyl)-3-methyl-1H-pyrazol-5-yl]-1-methyl-1H-imidazol-2-yl}-1-methyl-1H-pyrazolo[4,3-c]pyridine-6-carboxamide]	5.7	160	140
Cc1cc(-c2cn(C)c(-c3nc(C(N)=O)cc4c3cnn4C)n2)n(CC2CC2)n1 [AIF04, 4-{4-[1-(cyclopropylmethyl)-3-methyl-1H-pyrazol-5-yl]-1-methyl-1H-imidazol-2-yl}-1-methyl-1H-pyrazolo[4,3-c]pyridine-6-carboxamide]	23.6	2380	2120
Cc1cc(-c2cn(C)c(-c3nc(C(N)=O)cc4c3cnn4C)n2)n(CCC(F)(F)F)n1 [AIF05, 1-methyl-4-{1-methyl-4-[3-methyl-1-(3,3,3-trifluoropropyl)-1H-pyrazol-5-yl]-1H-imidazol-2-yl}-1H-pyrazolo[4,3-c]pyridine-6-carboxamide]	> 990	–	–
Cc1cc(-c2cn(C)c(-c3nc(C(N)=O)cc4c3cnn4C)n2)n(CC(F)(F)F)n1 [AIF06, 1-methyl-4-{1-methyl-4-[3-methyl-1-(2,2,2-trifluoroethyl)-1H-pyrazol-5-yl]-1H-imidazol-2-yl}-1H-pyrazolo[4,3-c]pyridine-6-carboxamide]	18.2	2570	2610
CCn1nc(C)c(O)c1-c1cn(C)c(-c2nc(C(N)=O)cc3c2cnn3C)n1 [AIF07, 4-[4-(1-ethyl-4-hydroxy-3-methyl-1H-pyrazol-5-yl)-1-methyl-1H-imidazol-2-yl]-1-methyl-1H-pyrazolo[4,3-c]pyridine-6-carboxamide]	2	200	310
CCn1nc(C)c(Cl)c1-c1cn(C)c(-c2nc(C(N)=O)cc3c2cnn3C)n1 [AIF08, 4-[4-(4-chloro-1-ethyl-3-methyl-1H-pyrazol-5-yl)-1-methyl-1H-imidazol-2-yl]-1-methyl-1H-pyrazolo[4,3-c]pyridine-6-carboxamide]	> 990	–	–
CCn1nc(C(F)(F)F)cc1-c1cn(C)c(-c2nc(C(N)=O)cc3c2cnn3C)n1 [AIF09, 4-{4-[1-ethyl-3-(trifluoromethyl)-1H-pyrazol-5-yl]-1-methyl-1H-imidazol-2-yl}-1-methyl-1H-pyrazolo[4,3-c]pyridine-6-carboxamide]	> 990	–	–
COCCCn1nc(C)c(O)c1-c1cn(C)c(-c2nc(C(N)=O)cc3c2cnn3C)n1 [AIF10, 4-{4-[4-hydroxy-1-(3-methoxypropyl)-3-methyl-1H-pyrazol-5-yl]-1-methyl-1H-imidazol-2-yl}-1-methyl-1H-pyrazolo[4,3-c]pyridine-6-carboxamide]	1.3	30	70
CCc1nn(C)cc1-c1cn(C)c(-c2nc(C(N)=O)cc3c2cnn3C)n1 [AIH01, 4-[4-(3-ethyl-1-methyl-1H-pyrazol-4-yl)-1-methyl-1H-imidazol-2-yl]-1-methyl-1H-pyrazolo[4,3-c]pyridine-6-carboxamide]	352	–	–
CCn1nc(C)cc1-c1cn(Cc2ccccc2)c(-c2nc(C(N)=O)cc3c2cnn3C)n1 [AIP03]	> 990	–	–
CCn1nc(C)cc1-c1cn(C2CC2)c(-c2nc(C(N)=O)cc3c2cnn3C)n1 [Example AIB01, 4-[1-cyclopropyl-4-(1-ethyl-3-methyl-1H-pyrazol-5-yl)-1H-imidazol-2-yl]-1-methyl-1H-pyrazolo[4,3-c]pyridine-6-carboxamide]	257	–	–
